Measured values from publication PMC6273913, “New α-Methylene-γ-Butyrolactone Derivatives as Potential Fungicidal Agents: Design, Synthesis and Antifungal Activities” (Molecules, 2016).
Where two headings read alike, the source gives them in different places.

Columns and labels:
C. lagenarium = assay: Spore germination assay, fungicidal activity against C. lagenarium; format: cell-based, Colletotrichum lagenarium
Method: (§1) The fungal pathogens C. lagenarium and B. cinerea was provided by the Agricultural Culture Collection of China (Yangling, Shaanxi, China). C. lagenarium was cultured for 2 weeks at 25 ± 1 °C on potato dextrose agar (PDA) while B. cinerea was cultured at 20 °C on the same medium after being retrieved from the storage tube. Plates were flooded with sterile distilled water, and then conidia were scraped with a glass rod. Mycelial debris was removed by filtration. The spores were harvested and suspended in sterile distilled water containing 0.1% (v/v) Tween 20. The concentration of the spore suspension was adjusted to 1.0 × 10^6 spores/mL with sterilized distilled water following.
(§2) The tested samples (10.0 mg) dissolved in acetone (0.1 mL) were diluted with sterile distilled water to prepare 10.0 mL stock solution, which was further diluted to prepare test solutions in which the final concentration of acetone was <1% (v/v). A series of concentrations of tested samples and one control (1% acetone with sterile distilled water) were separately tested for spore germination of C. lagenarium or B. cinerea. The samples were inoculated with spore suspension of C. lagenarium or B. cinerea containing 1.0 × 10^6 spores/mL. Aliquots of 10 μL of prepared spore suspension were placed on separate glass slides in triplicate. Slides containing the spores were incubated in a moisture chamber at 25 °C for 6~8 h. Each slide was then observed under the microscope for spore germination. Spores were considered to have germinated if the length of the germ tube was at least half the length of the spore. Afterward, spore germination was stopped by applying a drop of lactophenol-cotton blue to the inoculation sites on plates. The numbers of generated spores were counted under a microscope (Olympus BX61, Tokyo, Japan), and the percentage of germinated spores was calculated. Chlorothalonil was used as the positive control.

B. cinerea = assay: Spore germination assay, fungicidal activity against B. cinerea; format: cell-based, Botrytis cinerea; settings: in vitro, n = 3
Method: as §1, §2

[1] = Colletotrichum orbiculare, Table 1, from IC50 in μM, read-out: pIC50, C. lagenarium (converted)
[2] = Colletotrichum orbiculare, in vitro, spore germination, n = 3, read-out: IC50, C. lagenarium
[3] = Colletotrichum orbiculare, Table 2, fungicidal activity against C. lagenarium used for QSAR, read-out: pIC50 (converted)
[4] = Colletotrichum orbiculare, Table 4, experimental, C. lagenarium, read-out: Exp. pIC50 (converted)

Row | Compound | pIC50, C. lagenarium (C. lagenarium; Table 1, from IC50 in μM) | pIC50 (C. lagenarium; Table 2, fungicidal activity against C. lagenarium used for QSAR) | Exp. pIC50 (C. lagenarium; Table 4, experimental, C. lagenarium) | IC50 (C. lagenarium; in vitro, spore germination, n = 3, read-out: IC50, C. lagenarium) [µM] | IC50 (B. cinerea) [µM] | IC50 (C. lagenarium; [1]) [µM] | IC50 (C. lagenarium; [2]) [µM] | IC50 (B. cinerea; Botrytis cinerea) [µM] | IC50 (C. lagenarium; [3]) [µM] | IC50 (C. lagenarium; [4]) [µM] | melting point [°C]
1 | 4-[2-(Cinnamoyloxy)phenyl]-2-methylenebutyrolactone [Compound 5n] | −1.012 | −1.0120 | −1.0120 | 10.3 | 20.6 | – | – | – | – | – | –
2 | N#Cc1c(Cl)c(Cl)c(Cl)c(C#N)c1Cl [Chlorothalonil, reference compound] | – | – | – | – | – | 4.21 | 4.21 | 8.31 | – | – | –
3 | C=C1CC(c2ccc(OC(=O)c3ccccc3Cl)cc2)OC1=O (stereo not shown) [Compound 4a, 4-[4-(2-Chlorobenzoyloxy)phenyl]-2-methylenebutyrolactone] | – | – | – | – | – | 14 | 14 | 29.8 | 14 | 14 | 187.2 to 187.9
4 | C=C1CC(c2ccc(OC(=O)c3ccc(Cl)cc3)cc2)OC1=O (stereo not shown) [Compound 4c, 4-[4-(4-Chlorobenzoyloxy)phenyl]-2-methylenebutyrolactone] | – | – | – | – | – | 12.7 | 12.7 | 27.3 | 12.7 | 12.7 | 171.3 to 171.6
5 | C=C1CC(c2ccc(OC(=O)c3ccccc3Br)cc2)OC1=O (stereo not shown) [Compound 4d, 4-[4-(2-Bromobenzoyloxy)phenyl]-2-methylenebutyrolactone] | – | – | – | – | – | 15.6 | 15.6 | 24.1 | 15.6 | 15.6 | 174.5 to 174.9
6 | C=C1CC(c2ccc(OC(=O)c3ccc(Br)cc3)cc2)OC1=O (stereo not shown) [Compound 4f, 4-[4-(4-Bromobenzoyloxy)phenyl]-2-methylenebutyrolactone] | – | – | – | – | – | 14.4 | 14.4 | 23 | 14.4 | 14.4 | 175.1 to 175.6
7 | C=C1CC(c2ccc(OC(=O)c3ccc(C#N)cc3)cc2)OC1=O (stereo not shown) [Compound 4h] | – | – | – | – | – | 65.6 | 65.6 | 77 | 65.6 | 65.6 | –
8 | C=C1CC(c2ccc(OC(=O)c3ccccc3C)cc2)OC1=O (stereo not shown) [Compound 4j, 4-[4-(2-Methylbenzoyloxy)phenyl]-2-methylenebutyrolactone] | – | – | – | – | – | 192 | 192 | 199 | 192 | 192 | 189.6 to 190.1
9 | C=C1CC(c2ccc(OC(=O)c3ccc(C)cc3)cc2)OC1=O (stereo not shown) [Compound 4l, 4-[4-(4-Methylbenzoyloxy)phenyl]-2-methylenebutyrolactone] | – | – | – | – | – | 189 | 189 | 209 | 189 | 189 | 184.5 to 185.1
10 | C=C1CC(c2ccc(OC(=O)c3ccccc3OC)cc2)OC1=O (stereo not shown) [Compound 4m, 4-[4-(2-Methoxylbenzoyloxy)phenyl]-2-methylenebutyrolactone] | – | – | – | – | – | 239 | 239 | 243 | 239 | 239 | 179.8 to 180.4
11 | C=C1CC(c2ccc(OC(=O)c3cccc(OC)c3)cc2)OC1=O (stereo not shown) [Compound 4n, 4-[4-(3-Methoxylbenzoyloxy)phenyl]-2-methylenebutyrolactone] | – | – | – | – | – | 212 | 212 | 224 | 212 | 212 | 185.7 to 186.2
12 | C=C1CC(c2ccc(OC(=O)C=Cc3ccccc3)cc2)OC1=O (stereo not shown) [Compound 4r, 4-[4-(Cinnamoyloxy)phenyl]-2-methylenebutyrolactone] | – | – | – | – | – | 44.5 | 44.5 | 56.3 | 44.5 | 44.5 | –
13 | C=C1CC(c2ccccc2O)OC1=O (stereo not shown) [Compound 5, 4-(2-Hydroxyphenyl)-2-methylenebutyrolactone] | – | – | – | – | – | 239 | 239 | 280 | – | – | –
14 | C=C1CC(c2ccccc2OC(=O)c2ccc(Cl)cc2)OC1=O (stereo not shown) [Compound 5b, 4-[2-(4-Chlorobenzoyloxy)phenyl]-2-methylenebutyrolactone] | – | – | – | – | – | 17.7 | 17.7 | 34.5 | 17.7 | 17.7 | 208.7 to 209.3
15 | C=C1CC(c2ccccc2OC(=O)c2ccccc2Br)OC1=O (stereo not shown) [Compound 5c, 4-[2-(2-Bromobenzoyloxy)phenyl]-2-methylenebutyrolactone] | – | – | – | – | – | 15.9 | 15.9 | 34.6 | 15.9 | 15.9 | 204.6 to 205.1
16 | C=C1CC(c2ccccc2OC(=O)c2ccc(Br)cc2)OC1=O (stereo not shown) [Compound 5e, 4-[2-(4-Bromobenzoyloxy)phenyl]-2-methylenebutyrolactone] | – | – | – | – | – | 15.3 | 15.3 | 36.1 | 15.3 | 15.3 | 184.7 to 185.2
17 | C=C1CC(c2ccccc2OC(=O)c2ccc(C#N)cc2)OC1=O (stereo not shown) [Compound 5f] | – | – | – | – | – | 79.1 | 79.1 | 95 | 79.1 | 79.1 | –
18 | C=C1CC(c2ccccc2OC(=O)c2ccccc2)OC1=O (stereo not shown) [Compound 5g, 4-(2-Benzoyloxyphenyl)-2-methylenebutyrolactone] | – | – | – | – | – | 171 | 171 | 194 | 171 | 171 | 166.3 to 167
19 | C=C1CC(c2ccccc2OC(=O)c2ccccc2C)OC1=O (stereo not shown) [Compound 5h, 4-[2-(2-Methylbenzoyloxy)phenyl]-2-methylenebutyrolactone] | – | – | – | – | – | 216 | 216 | 229 | 216 | 216 | 172.8 to 173.4
20 | C=C1CC(c2ccccc2OC(=O)c2ccc(C)cc2)OC1=O (stereo not shown) [Compound 5j, 4-[2-(4-Methylbenzoyloxy)phenyl]-2-methylenebutyrolactone] | – | – | – | – | – | 207 | 208 | 259 | 207 | 207 | 181.2 to 181.6
21 | C=C1CC(c2ccccc2OC(=O)c2ccccc2OC)OC1=O (stereo not shown) [Compound 5k, 4-[2-(2-Methoxylbenzoyloxy)phenyl]-2-methylenebutyrolactone] | – | – | – | – | – | 292 | 292 | 307 | 292 | 292 | 177.8 to 178.6
22 | C=C1CC(c2ccccc2OCCCC)OC1=O (stereo not shown) [Compound 5o, 4-(2-Butoxyphenyl)-2-methylenebutyrolactone] | – | – | – | – | – | 414 | 414 | 457 | 414 | 414 | –
23 | C=C1CC(c2ccccc2OC(C)C)OC1=O (stereo not shown) [Compound 5q, 4-(2-Isopropoxylphenyl)-2-methylenebutyrolactone] | – | – | – | – | – | 429 | 429 | 446 | 429 | 429 | –
24 | C=C1CC(c2cccc(OC(=O)CC)c2)OC1=O (stereo not shown) [Compound 6m, 4-(3-Propionyloxyphenyl)-2-methylenebutyrolactone] | – | – | – | – | – | 173 | 173 | 203 | 173 | 173 | –
25 | C=C1CC(c2cccc(OCCC)c2)OC1=O (stereo not shown) [Compound 6p, 4-(3-Propoxylphenyl)-2-methylenebutyrolactone] | – | – | – | – | – | 266 | 266 | 298 | 266 | 266 | –
